# Experimental data taken from patent US10189854B2, “Substituted pyrimidine compounds” (Grünenthal GmbH, priority 2014, dated 2019).
# Target: human PDE4B1 (Homo sapiens (Human), UniProt Q07343)
# Experiment: cAMP HTRF assay to determine the activity of hPDE4B1
# Type: biochemical
# Details: IC50 inhibition of PDE4B; human recombinant PDE4B1, cAMP HTRF assay
# Procedure, shortened: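 Recombinant human PDE4B1 expressed in Sf9 cells (4.8 U) was incubated with 40 nM cAMP for 30 min at room temperature in Tris buffer, pH 7.8, with MgCl2, DTT and Tween 20. HTRF detection of remaining cAMP followed, with 1 mM IBMX stop, read 60 min later as the 665/620 nm ratio. Results are % inhibition versus control.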
# human PDE4B1, sequence (Q07343 whole entry): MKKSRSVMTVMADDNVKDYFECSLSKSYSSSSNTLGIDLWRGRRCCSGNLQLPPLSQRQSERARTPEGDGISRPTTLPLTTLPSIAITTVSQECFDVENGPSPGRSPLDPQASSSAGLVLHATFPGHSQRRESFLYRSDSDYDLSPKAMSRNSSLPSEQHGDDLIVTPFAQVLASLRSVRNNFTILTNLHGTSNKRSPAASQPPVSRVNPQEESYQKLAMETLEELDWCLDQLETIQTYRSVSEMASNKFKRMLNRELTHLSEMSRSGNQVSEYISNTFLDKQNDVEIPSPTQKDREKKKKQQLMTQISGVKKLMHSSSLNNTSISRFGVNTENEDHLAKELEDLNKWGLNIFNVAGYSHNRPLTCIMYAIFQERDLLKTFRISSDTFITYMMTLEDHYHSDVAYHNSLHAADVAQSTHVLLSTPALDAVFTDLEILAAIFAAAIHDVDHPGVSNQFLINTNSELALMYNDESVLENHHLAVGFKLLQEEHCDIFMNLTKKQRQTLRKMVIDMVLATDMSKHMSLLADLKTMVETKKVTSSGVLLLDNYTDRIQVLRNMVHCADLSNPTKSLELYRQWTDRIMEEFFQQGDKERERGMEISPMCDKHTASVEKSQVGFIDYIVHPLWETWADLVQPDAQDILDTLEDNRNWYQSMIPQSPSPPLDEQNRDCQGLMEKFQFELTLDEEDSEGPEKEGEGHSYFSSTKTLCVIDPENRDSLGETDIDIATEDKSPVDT
row,IC50,Structure (SMILES)
1,< 0.1 µM,"CN(C)C(=O)c1ccc2c(c1)N(c1ncc(-c3ccccc3)cn1)CC21CC1 [Compound 124, N,N-Dimethyl-1-(5-phenyl-pyrimidin-2-yl)-spiro[1,2-dihydro-indole-3,1′-cyclopropane]-6-carboxylic acid amide]"
2,< 0.1 µM,"CN(C)C(=O)c1ccc2c(c1)N(c1ncc(-c3cccc(F)c3)cn1)CC21CC1 [Compound 125, 1-[5-(3-Fluorophenyl)-pyrimidin-2-yl]-N,N-dimethyl-spiro[1,2-dihydro-indole-3,1′-cyclopropane]-6-carboxylic acid amide]"
3,< 0.1 µM,"CN(CCO)C(=O)c1ccc2c(c1)N(c1ncc(-c3cc(F)cc(F)c3)cn1)CC21CC1 [Compound 126, 1-[5-(3,5-Difluoro-phenyl)-pyrimidin-2-yl]-N-(2-hydroxy-ethyl)-N-methyl-spiro[1,2-dihydro-indole-3,1′-cyclopropane]-6-carboxylic acid amide]"
4,0.1 to 1 µM,"NC(=O)c1ccc2c(c1)N(c1ncc(-c3ccccc3F)cn1)CC21CC1 [Compound 127, 1-[5-(2-Fluorophenyl)-pyrimidin-2-yl]-spiro[1,2-dihydro-indole-3,1′-cyclopropane]-6-carboxylic acid amide]"
5,< 0.1 µM,"O=C1CN(C(=O)c2ccc3c(c2)N(c2ncc(-c4cc(F)cc(F)c4)cn2)CC32CC2)CCN1 [Compound 128, 4-[1-[5-(3,5-Difluoro-phenyl)-pyrimidin-2-yl]-spiro[1,2-dihydro-indole-3,1′-cyclopropane]-6-carbonyl]-piperazin-2-one]"
6,< 0.1 µM,"CN(CCO)C(=O)c1ccc2c(c1)N(c1ncc(-c3cccc(F)c3)cn1)CC21CC1 [Compound 129, 1-[5-(3-Fluorophenyl)-pyrimidin-2-yl]-N-(2-hydroxy-ethyl)-N-methyl-spiro[1,2-dihydro-indole-3,1′-cyclopropane]-6-carboxylic acid amide]"
7,< 0.1 µM,"O=C(c1ccc2c(c1)N(c1ncc(-c3cccc(F)c3)cn1)CC21CC1)N1CCCC1 [Compound 130, [1-[5-(3-Fluorophenyl)-pyrimidin-2-yl]-spiro[1,2-dihydro-indole-3,1′-cyclopropane]-6-yl]-pyrrolidin-1-yl-methanone]"
8,0.1 to 1 µM,"O=C(c1ccc2c(c1)N(c1ncc(-c3ccc(Cl)s3)cn1)CC21CC1)N1CCOCC1 [Compound 131, [1-[5-(5-Chloro-thiophen-2-yl)-pyrimidin-2-yl]-spiro[1,2-dihydro-indole-3,1′-cyclopropane]-6-yl]-morpholin-4-yl-methanone]"
9,< 0.1 µM,"O=C(c1ccc2c(c1)N(c1ncc(-c3ccsc3Cl)cn1)CC21CC1)N1CCOCC1 [Compound 132, [1-[5-(2-Chloro-thiophen-3-yl)-pyrimidin-2-yl]-spiro[1,2-dihydro-indole-3,1′-cyclopropane]-6-yl]-morpholin-4-yl-methanone]"
10,0.1 to 1 µM,"O=C(c1ccc2c(c1)N(c1ncc(-c3sccc3Cl)cn1)CC21CC1)N1CCOCC1 [Compound 133, [1-[5-(3-Chloro-thiophen-2-yl)-pyrimidin-2-yl]-spiro[1,2-dihydro-indole-3,1′-cyclopropane]-6-yl]-morpholin-4-yl-methanone]"
11,0.1 to 1 µM,"Cn1nc(C(F)(F)F)cc1-c1cnc(N2CC3(CC3)c3ccc(C(=O)N4CCOCC4)cc32)nc1 [Compound 134, [1-[5-[2-Methyl-5-(trifluoromethyl)-2H-pyrazol-3-yl]-pyrimidin-2-yl]-spiro[1,2-dihydro-indole-3,1′-cyclopropane]-6-yl]-morpholin-4-yl-methanone]"
12,0.1 to 1 µM,"Cc1noc(C)c1-c1cnc(N2CC3(CC3)c3ccc(C(=O)N4CCOCC4)cc32)nc1 [Compound 135, [1-[5-(3,5-Dimethyl-isoxazol-4-yl)-pyrimidin-2-yl]-spiro[1,2-di-hydro-indole-3,1′-cyclopropane]-6-yl]-morpholin-4-yl-methanone]"
13,< 0.1 µM,"Cn1ccc(-c2cnc(N3CC4(CC4)c4ccc(C(=O)N5CCOCC5)cc43)nc2)c1 [Compound 136, [1-[5-(1-Methyl-1H-pyrrol-3-yl)-pyrimidin-2-yl]-spiro[1,2-dihydro-indole-3,1′-cyclopropane]-6-yl]-morpholin-4-yl-methanone]"
14,< 0.1 µM,"Cn1ccc(-c2cnc(N3CC4(CC4)c4ccc(C(=O)N5CCOCC5)cc43)nc2)n1 [Compound 137, [1-[5-(1-Methyl-1H-pyrazol-3-yl)-pyrimidin-2-yl]-spiro[1,2-dihydro-indole-3,1′-cyclopropane]-6-yl]-morpholin-4-yl-methanone]"
15,< 0.1 µM,"Cn1cc(-c2cnc(N3CC4(CC4)c4ccc(C(=O)N5CCOCC5)cc43)nc2)cn1 [Compound 138, [1-[5-(1-Methyl-1H-pyrazol-4-yl)-pyrimidin-2-yl]-spiro[1,2-dihydro-indole-3,1′-cyclopropane]-6-yl]-morpholin-4-yl-methanone]"
16,< 0.1 µM,"COc1ccsc1-c1cnc(N2CC3(CC3)c3ccc(C(=O)N4CCOCC4)cc32)nc1 [Compound 139, [1-[5-(3-Methoxy-thiophen-2-yl)-pyrimidin-2-yl]-spiro[1,2-dihydro-indole-3,1′-cyclopropane]-6-yl]-morpholin-4-yl-methanone]"
17,< 0.1 µM,"O=C(c1ccc2c(c1)N(c1ncc(-c3cn[nH]c3C(F)(F)F)cn1)CC21CC1)N1CCOCC1 [Compound 140, Morpholin-4-yl-[1-[5-[5-(trifluoromethyl)-1H-pyrazol-4-yl]-pyrimidin-2-yl]-spiro[1,2-dihydro-indole-3,1′-cyclopropane]-6-yl]-methanone]"
18,< 0.1 µM,"O=C(c1ccc2c(c1)N(c1ncc(-c3ccc(CO)o3)cn1)CC21CC1)N1CCOCC1 [Compound 142, [1-[5-[5-(Hydroxymethyl)-furan-2-yl]-pyrimidin-2-yl]-spiro[1,2-di-hydro-indole-3,1′-cyclopropane]-6-yl]-morpholin-4-yl-methanone]"
19,< 0.1 µM,"N#Cc1ccc(-c2cnc(N3CC4(CC4)c4ccc(C(=O)N5CCOCC5)cc43)nc2)s1 [Compound 143, 5-[2-(6-(Morpholine-4-carbonyl)-spiro[1,2-dihydro-indole-3,1′-cyclopropane]-1-yl]-pyrimidin-5-yl]-thiophene-2-carbonitrile]"
20,< 0.1 µM,"Cc1n[nH]c(C)c1-c1cnc(N2CC3(CC3)c3ccc(C(=O)N4CCOCC4)cc32)nc1 [Compound 144, [1-[5-(3,5-Dimethyl-1H-pyraozl-4-yl)-pyrimidin-2-yl]-spiro[1,2-di-hydro-indole-3,1′-cyclopropane]-6-yl]-morpholin-4-yl-methanone]"
21,< 0.1 µM,"O=C(c1ccc2c(c1)N(c1ncc(-c3cccnc3F)cn1)CC21CC1)N1CCOCC1 [Compound 145, [1-[5-(2-Fluoro-pyridin-3-yl)-pyrimidin-2-yl]-spiro[1,2-dihydro-indole-3,1′-cyclopropane]-6-yl]-morpholin-4-yl-methanone]"
22,< 0.1 µM,"O=C(c1ccc2c(c1)N(c1ncc(-c3ccncc3)cn1)CC21CC1)N1CCOCC1 [Compound 146, Morpholin-4-yl-[1-(5-pyridin-4-yl-pyrimidin-2-yl)-spiro[1,2-dihydro-indole-3,1′-cyclopropane]-6-yl]-methanone]"
23,< 0.1 µM,"O=C(c1ccc2c(c1)N(c1ncc(-c3ccncc3F)cn1)CC21CC1)N1CCOCC1 [Compound 147, [1-[5-(3-Fluoro-pyridin-4-yl)-pyrimidin-2-yl]-spiro[1,2-dihydro-indole-3,1′-cyclopropane]-6-yl]-morpholin-4-yl-methanone]"
24,< 0.1 µM,"O=C(c1ccc2c(c1)N(c1ncc(-c3ccc(F)s3)cn1)CC21CC1)N1CCOCC1 [Compound 148, [1-[5-(5-Fluoro-thiophen-2-yl)-pyrimidin-2-yl]-spiro[1,2-dihydro-indole-3,1′-cyclopropane]-6-yl]-morpholin-4-yl-methanone]"
25,< 0.1 µM,"O=C(c1ccc2c(c1)N(c1ncc(-c3ccc(CO)s3)cn1)CC21CC1)N1CCOCC1 [Compound 149, [1-[5-[5-(Hydroxymethyl)-thiophen-2-yl]-pyrimidin-2-yl]-spiro[1,2-dihydro-indole-3,1′-cyclopropane]-6-yl]-morpholin-4-yl-methanone]"
26,< 0.1 µM,"O=C(c1ccc2c(c1)N(c1ncc(-c3ccccn3)cn1)CC21CC1)N1CCOCC1 [Compound 150, Moprholin-4-yl-[1-(5-pyridin-2-yl-pyrimidin-2-yl)-spiro[1,2-dihydro-indole-3,1′-cyclopropane]-6-yl]-methanone]"
27,< 0.1 µM,"O=C(c1ccc2c(c1)N(c1ncc(-c3cccc(F)n3)cn1)CC21CC1)N1CCOCC1 [Compound 151, [1-[5-(6-Fluoro-pyridin-2-yl)-pyrimidin-2-yl]-spiro[1,2-dihydro-indole-3,1′-cyclopropane]-6-yl]-morpholin-4-yl-methanone]"
28,0.1 to 1 µM,"NC(=O)c1ccc(-c2cnc(N3CC4(CC4)c4ccc(C(=O)N5CCOCC5)cc43)nc2)s1 [Compound 152, 5-[2-[6-(Morpholine-4-carbonyl)-spiro[1,2-dihydro-indole-3,1′-cyclopropane]-1-yl]-pyrimidin-5-yl]-thiophene-2-carboxylic acid amide]"
29,< 0.1 µM,"N#Cc1ccsc1-c1cnc(N2CC3(CC3)c3ccc(C(=O)N4CCOCC4)cc32)nc1 [Compound 153, 2-[2-[6-(Morpholine-4-carbonyl)-spiro[1,2-dihydro-indole-3,1′-cyclopropane]-1-yl]-pyrimidin-5-yl]-thiophene-3-carbonitrile]"
30,< 0.1 µM,"Cc1nc(C)c(-c2cnc(N3CC4(CC4)c4ccc(C(=O)N5CCOCC5)cc43)nc2)s1 [Compound 154, [1-[5-(2,4-Dimethyl-thiazol-5-yl)-pyrimidin-2-yl]-spiro[1,2-dihydro-indole-3,1′-cyclopropane]-6-yl]-morpholin-4-yl-methanone]"

row,Structure (SMILES),IC50
1,"Cn1cccc1-c1cnc(N2CC3(CC3)c3ccc(C(=O)N4CCOCC4)cc32)nc1 [Compound 141, [1-[5-(1-Methyl-1H-pyrrol-2-yl)-pyrimidin-2-yl]-spiro[1,2-dihydro-indole-3,1′-cyclopropane]-6-yl]-morpholin-4-yl-methaone]",< 0.1 µM
